Non-standard residues stand in square brackets, D forms with d. No end group written: not given here. Nphe = O=C(O)CNCc1ccccc1
System: TLR4 with MD2 or CD14 co-receptor
Assay: Reporter gene (SEAP) PAMP assay in NIH3T3 cells expressing TLR4 with MD2 or CD14 co-receptor
Type: cell-based
Settings: summary of FIGS. 6A-6V; for Co-Receptor/s: co-receptor (MD2/CD14) via which the effect occurs; for Activity: type of effect (activation/inhibition) on TLR4
From the text: FIGS. 6A-6V show the dose response inhibitor/activator effects of the designed peptides using a reporter gene assay. The reporter gene assay is composed of NIH3T3 cells transfected with either MD2 or CD14 along with TLR4 and the NF-κB-inducible reporter gene Secreted Alkaline Phosphatase (SEAP) to monitor TLR4 activation (Burger-[…] al. 2010, A new cell-based innate immune receptor assay for the examination of receptor activity, ligand specificity, signaling pathways and the detection of pyrogens. […] The receptors are coupled to for the detection of inhibitory activity, cells were treated with the peptide prior to exposure to LPS and the response to LPS is measured at variable peptide doses (as labeled). The detection of cell activation was performed using the peptide alone, at variable doses, as indicated in the respective graphs. The following presents in more details the experimental procedures. Experimental setup: The cell-based Assay is performed with different NIH3T3 reporter cell lines (NIH 3T3 PRR SEAP-TLR4/CD14 or -TLR4/MD2) and the control cell line NIH 3T3 SEAP. The NIH3T3 SEAP cell line is used in order to determine the background of the alkaline phosphatase expression. It is a cell line stably transfected with only the reporter gene plasmid. For each assay a vial of the master cell bank is revitalized and seeded in a standard cell culture flask (75 cm^2 T-Flask) at day one. Cells are cultured in 20 ml culture media (DMEM supplemented with 10% FCS (heat inactivated), 50 units/ ml penicillin, 0.05 mg/ ml streptomycin and 2 mmol/ L L-glutamine). The cells are cultured at 37° C. in a 5% CO2 humidified atmosphere. At Day 1: For the PAMP Assay cells are seeded in a 96-well plate at a density of 0.3.10^5 cells/well in a final volume of 100 μl culture media (DMEM, 10% FCS (heat inactivated)). To ensure equal culture conditions the 96-well cell culture plates are placed side by side and cultivated in a humidified CO2 incubator (37° C. and 5% CO2). […] After a cultivation period of 24 h the media is removed and replaced with the respective volume of fresh media (DMEM, 0.5% FCS (heat inactivated)).The lyophilized peptides are stored in a freezer at -20° C. upon arrival. For the experiments they are dissolved in DMSO (to the highest possible concentration). Before opening the peptides are allowed to equilibrate to room temperature (in order to reduce the uptake of moisture). For each experiment the stock solution is diluted in DMEM to the appropriate working concentration. […] Sonication was also used to help dissolve the peptides. Immediately after replacing the media, the diluted peptides are applied in a serial dilution to the cells and directly after that the agonist is added to the cells. After adding peptide and […] the final volume in each well of a 96 well plate amounts 100 μl/well. The culture medium containing 0.5% FCS is used as a negative reference item. The induction is performed for 18 h at 37° C. and 5% CO2. At Day 3: To determine the final SEAP value, 50 μl of the supernatant is carefully transferred in a new 96-well plate (Greiner-F-plate) and 50 μl of the substrate (pNPP; p-nitrophenyl phosphate) is added. SEAP catalyzes the hydrolysis of pNPP to the final product para-nitrophenol (yellow) which can be detected by a photometric analysis using an UV-VIS reader at 405 nm. […] The results of FIGS. 6A-6V with respect to peptide activity are summarized in Table 1 above with respect to the type of effect of the respective peptide (activation/inhibition) and with respect to the corresponding co-receptor (MD2/CD14). Data concerning SEQ ID No. 22 with respect to co-receptor CD14 is in preparation.

(N′) 1(S)Glu-2(S)Trp-3Gly-4(S)Trp-5(S)Arg-6(S)Met-7(R,S)Ile-8Bzl(Gly) (C′) (EWGWRMI[Nphe]; also: Ile7 (R,S)) [SEQ ID No. 2 (M1)]
Co-Receptor/s: MD2/CD14 | Activity: Activator

EWGWRMII (Activator) [SEQ ID No. 2]
Co-Receptor/s: MD2/CD14 | Activity: Activator

ILYKSLKWM (Activator) [SEQ ID No. 5]
Co-Receptor/s: MD2/CD14 | Activity: Activator

KKLMLII (at the C-terminus CH3 replace COOH) (KKLMLII-CH3) [SEQ ID No. 12]
Co-Receptor/s: MD2/CD14 | Activity: Inhibitor

MIPYGMRMM (Inhibitor) [SEQ ID No. 10]
Co-Receptor/s: MD2 | Activity: Inhibitor

PLWMMIKSMGSMMEMKK (Activator) [SEQ ID No. 3]
Co-Receptor/s: MD2 | Activity: Activator

RYETMSIMIKSGGKG (RYETMSIMIKSGGKY; Activator) [SEQ ID No. 1]
Co-Receptor/s: MD2/CD14 | Activity: Activator

c[IGFMMMKKEF] (cyclic; Activator, cyclic) [SEQ ID No. 8]
Co-Receptor/s: MD2/CD14 | Activity: Activator

c[IWSRSW] (cyclic; Inhibitor, cyclic) [SEQ ID No. 15]
Co-Receptor/s: MD2 | Activity: Inhibitor

c[SIWDTMW] (cyclic; Inhibitor, cyclic) [SEQ ID No. 14]
Co-Receptor/s: MD2 | Activity: Inhibitor

c[SWEFLW] (cyclic; Inhibitor, cyclic) [SEQ ID No. 13]
Co-Receptor/s: MD2/CD14 | Activity: Inhibitor

c[geldkftm] (all D-amino acids) (cyclo(G[dE][dL][dD][dK][dF][dT][dM]); SMILES CSCC[C@H]1NC(=O)[C@@H]([C@H](C)O)NC(=O)[C@@H](Cc2ccccc2)NC(=O)[C@@H](CCCCN)NC(=O)[C@@H](CC(=O)O)NC(=O)[C@@H](CC(C)C)NC(=O)[C@@H](CCC(=O)O)NC(=O)CNC1=O) [SEQ ID No. 21]
Co-Receptor/s: MD2/CD14 | Activity: Activator

c[gfwseeeksl] (all D-amino acids) (cyclo(G[dF][dW][dS][dE][dE][dE][dK][dS][dL]); SMILES CC(C)C[C@H]1NC(=O)[C@@H](CO)NC(=O)[C@@H](CCCCN)NC(=O)[C@@H](CCC(=O)O)NC(=O)[C@@H](CCC(=O)O)NC(=O)[C@@H](CCC(=O)O)NC(=O)[C@@H](CO)NC(=O)[C@@H](Cc2c[nH]c3ccccc23)NC(=O)[C@@H](Cc2ccccc2)NC(=O)CNC1=O) [SEQ ID No. 22]
Co-Receptor/s: MD2/CD14 | Activity: Activator

c[gwlwrsl] (all D-amino acids) (cyclo(G[dW][dL][dW][dR][dS][dL]); SMILES CC(C)C[C@H]1NC(=O)[C@@H](CO)NC(=O)[C@@H](CCCNC(=N)N)NC(=O)[C@@H](Cc2c[nH]c3ccccc23)NC(=O)[C@@H](CC(C)C)NC(=O)[C@@H](Cc2c[nH]c3ccccc23)NC(=O)CNC1=O) [SEQ ID No. 19]
Co-Receptor/s: MD2/CD14 | Activity: Activator

c[gwwwral] (all D-amino acids) (cyclo(G[dW][dW][dW][dR][dA][dL]); SMILES CC(C)C[C@H]1NC(=O)[C@@H](C)NC(=O)[C@@H](CCCNC(=N)N)NC(=O)[C@@H](Cc2c[nH]c3ccccc23)NC(=O)[C@@H](Cc2c[nH]c3ccccc23)NC(=O)[C@@H](Cc2c[nH]c3ccccc23)NC(=O)CNC1=O) [SEQ ID No. 20]
Co-Receptor/s: MD2/CD14 | Activity: Inhibitor

rmmmw (all D-amino acids, CH3 group replaces C-term) ([dR][dM][dM][dM][dW]-CH3) [SEQ ID No. 16]
Co-Receptor/s: MD2/CD14 | Activity: Activator

tiymmmtmkg (all D-amino acids, both isoleucine chiral centers in D-enantiomer) [SEQ ID No. 18]
Co-Receptor/s: CD14 | Activity: Activator

wwikd (all D-amino acids, both isoleucine chiral centers in D-enantiomer) [SEQ ID No. 17]
Co-Receptor/s: MD2/CD14 | Activity: Activator

— US20200247849A1, “PEPTIDE AGONISTS AND ANTAGONISTS OF TLR4 ACTIVATION” (PEPTICOM LTD, priority 2016, published 2020)
